Entries after “also recorded” stand apart in the source; their conditions may differ. Where a name gives a salt, the structure may show the parent alone.
What was measured:
CFU-GM = CFU-GM mobilization to peripheral blood in mice; type: in vivo, mouse; settings: for CFU-GM / peripheral blood stem cell mobilization with G-CSF: co-administered with G-CSF, 4 days, vs G-CSF alone
Description: Since PGE2 increases CXCR4 receptor expression and SDF-1/CXCR4 signalling is important for trafficking and retention of HSPC in the marrow. […] Data are expressed as mean±SEM CFU-GM mobilized per ml of blood for N=3 mice each assayed individually.
Mice were given SC treatments of 150 microgram/kg indomethacin or 150 microgram/kg baicalein (lipoxygenase inhibitor) in gelatin every 48 hours with or without G-CSF for 4 days. CFU-GM mobilization was determined as previously described (Pelus et. al., Experimental Hematology 33 (2005) 295-307). […] Data are expressed as mean±SEM CFU-GM mobilized per ml of blood for N=3 mice each assayed.
Referring now to FIG. 16, mice were given daily, bid SC injections with G-CSF (1 microgram per mouse) or G-CSF+indomethacin (50 microgram per mouse) for 4 days. CFU-GM mobilization was determined as described (Pelus et. al., Experimental Hematology 33 (2005) 295-307).
Mice were given daily, bid SC injections with vehicle or Indomethacin (50 microgram per mouse) for four days. On day 5, mice were given either vehicle or AMD3100 (5 mg/kg). One hour later mice were sacrificed and CFU-GM mobilization was determined as previously described (Pelus et. al., Experimental Hematology 33 (2005) 295-307). […] Data are expressed as mean±SEM, n=5 mice per group, each assayed individually.
Mice were mobilized with G-CSF and CFU-GM in PB was compared to mobilization regimens with G-CSF and the combination of various NSAIDS (Aspirin [COX-1 and COX-2]; Licofelone [COX-2 and 5-LOX]; SC-560 [COX-1]; Valeryl Salicylate [COX-1]; Valdecoxib [COX-2]; NS-398 [COX-2]). […] In order to test the efficacy of two commonly used COX inhibitors, mice were mobilized with G-CSF or the combination of G-CSF and aspirin or ibuprofen (PO., bid, 4 days). CFU-GM was determined as previously described. Referring now to FIG. 28, dose-response analysis of G-CSF+Aspirin and G-CSF+Ibuprofen mobilization of CFU-GM to peripheral blood are present in bar graph form for a control group of mice treated with only G-CSF; for mice treated with G-CSF plus 10, 20 or 40 milligram/kg of aspirin; and for mice treated with G-CSF plus 10, 20 or 40 milligram/kg of ibuprofen. Data are expressed as mean±SEM, n=4 mice per group, each assayed individually.

SKL cells = experiment: HSPC homing to bone marrow in vivo; parameters: species or system mouse; settings: 10 microMolar AMD3100, cells incubated before homing assay; dihydrate
Description: CD45.2 WBM was labeled with CFSE (Molecular Probes, Eugene, Oreg.) washed and treated on ice with either 1 microMolar dmPGE2 or vehicle. After treatment, cells were washed and 2×10^7 cells transplanted into lethally irradiated CD45.2 mice. After 16 hours, femurs and tibias were flushed, and a proportion of mouse marrow Lin^+ cells depleted using MACS microbeads (Miltenyi Biotech), stained with fluorochrome-conjugated-antibodies specific for biotin (lineage), c-kit (K), and Sca-1 (S) and the total number of CFSE^+ WBM (non lineage depleted), KL and SKL cells determined. For congenic homing studies, Lin^neg CD45.1 cells were treated on ice with 1 microMolar dmPGE2, vehicle, or PBS. After incubation, cells were washed and 2×10^6 cells transplanted into CD45.2 mice. After 16 hours, recipient bone marrow was harvested, lineage depleted, stained, and donor CD45.1 SKL cells determined. For competitive, head-to-head homing studies using sorted SKL cells, Lin^neg cells from CD45.2 and CD45.1 mice were FACS sorted, cells treated with either dmPGE2 or vehicle for 2 hours, washed and 3×10^4 CD45.1 (vehicle or dmPGE2 treated) plus 3×10^4 CD45.2 (dmPGE2 or vehicle treated) SKL cells transplanted into lethally irradiated F1 Hybrid mice. To evaluate the role of CXCR4 in homing studies, Lin^neg CD45.2 cells were treated on ice with vehicle or 1 microMolar dmPGE2 plus 10 microMolar AMD3100 (AnorMed Inc., Vancouver, BC, Canada) and 2×10^6 treated cells injected into lethally irradiated CD45.1 mice. Homed SKL cells were analyzed 16 hours post-transplant.
Irrespective of its cause a marrow niche is required for HSPC to self-renew and differentiate and it is very likely that only HSPC homing to these niches can provide long-term repopulation. Referring now to FIG. 3A, in order to assess HSPC homing, CFSE labeled whole bone marrow (WBM) CD45.2 cells were pulsed with dmPGE2 or vehicle for 2 hours on ice, washed and injected IV in lethally irradiated CD45.2 hosts. After 16 hours, total CFSE^+ cells homing to bone marrow as well as the number of homed events within the KL and SKL cell populations were quantified.
Highly purified SKL cells from both CD45.2 and CD45.1 mice were isolated by FACS sorting, treated with dmPGE2 or vehicle, and 3×10^4 vehicle-treated CD45.1 cells plus 3×10^4 dmPGE2-treated CD45.2 cells transplanted into CD45.1/CD45.2 mice. An additional cohort was concurrently transplanted with congenic strain and treatment groups were switched to test for any bias in strain homing. […] Although SKL cells are not a homogenous HSPC population, they are highly enriched for LTRC (Okada et al., 1992; Spangrude and Scollay, 1990).
To evaluate the role of CXCR4 in homing, Lineage^neg CD45.2 cells were treated with vehicle or 1 microMolardmPGE2 plus 10 microMolar AMD3100, 2×10^6 treated cells injected into lethally-irradiated CD45.1 mice and homed SKL cells recovered 16 hours post-transplant and analyzed by FACS. Referring now to FIG. 11, homing efficiency of vehicle and dmPGE2 treated cells to bone marrow in the absence and presence of 10 microMolar AMD3100. Cells were incubated with AMD3100 for 30 minutes prior to the homing assay.

mobilized PBMC = experiment: Competitive transplantation of mobilized PBMC; type: in vivo, mouse; settings: co-administered with G-CSF without stagger, 12 weeks post transplant, vs G-CSF alone
Description: Data are expressed as mean±SEM, n=5 mice per group, each assayed individually.

Row | Compound | baseline CFU-GM mobilization (CFU-GM; 150 μg/kg SC, alone) | CFU-GM / peripheral blood stem cell mobilization with G-CSF (CFU-GM) | effect of CXCR4 antagonist on SKL cell homing and on PGE2-enhanced homing (SKL cells) | engraftment (competitive repopulating units) of mobilized PBMC (mobilized PBMC) | increase in the number of mobilized progenitor cells (CFU-GM) (CFU-GM; 150 μg/kg SC once daily for 4 days, alone) | HSPC (CFU-GM) mobilization in combination with AMD3100 (CFU-GM; 50 microgram per mouse bid SC 4 days, AMD3100 5 mg/kg day 5) | CFU-GM / peripheral blood stem cell mobilization with G-CSF (CFU-GM; listed as Indomethacin)
1 | O=c1cc(-c2ccccc2)oc2cc(O)c(O)c(O)c12 [baicalein] | no effect | no effect | – | – | – | – | –
2 | c1cc(CN2CCCNCCNCCCNCC2)ccc1CN1CCCNCCNCCCNCC1 [AMD3100, 1,1′-[1,4-Phenylenebis(methylene)]bis[1,4,8,11-tetraazacyclotetradecane]octohydrobromide dihydrate] | – | – | reduced SKL cell homing and abrogated the improved homing efficiency; also recorded: significantly reduced | – | – | – | –
3 | COc1ccc2c(c1)c(CC(=O)O)c(C)n2C(=O)c1ccc(Cl)cc1 [indomethacin, 2-{1-[(4-chlorophenyl)carbonyl]-5-methoxy-2-methyl-1H-indol-3-yl}acetic acid] | – | highly synergistic increase; also recorded: larger fold increase | – | no improvement in engraftment | 4 fold | Mobilizes HSPC | synergistically mobilize; also recorded: synergistic effect

From patent US9107909B2, “Materials and methods to enhance hematopoietic stem cells engraftment procedures” (priority 2008, dated 2015)
